# Data taken from PMC9822155, “Synthesis and Antiproliferative Activity against Cancer Cells of Indole-Aryl-Amide Derivatives” (Molecules, 2022).
# Legend:
# [1] = system: acetylated histones in HT29 cells; assay: Histone acetylation, western blot of nuclear lysates; format: cell-based, human; settings: HT29, 5 μM, 6 h
# Method: In order to identify acetylated histones, we analyzed the nuclear cell lysates by western blot using a 10% polyacrylammide gel electrophoresis. […] Differences in the density of the bands are thought to reflect differences in protein acetylation levels. Histone acetylation signals were quantified by densitometry and normalized on histone H1 (Figure 5).
# HT29 cells were seeded in dish and after 24 h they were treated for 6 h with compound 5 at final concentration of 5 µM. Cells were harvested, washed with 10 mM sodium butyrate in PBS, and nuclei were isolated in according to Amellem and Micheletti. The nuclear pellet was suspended in 0.1 mL ice-cold H2O using a Vortex mixer, and concentrated H2SO4 was added to the suspension to give a final concentration of 0.4 N. After incubation at 4 °C for 1 h, the suspension was centrifuged for 5 min at 14,000× g, and the supernatant was taken and mixed with 1 mL of acetone. After overnight incubation, the coagulate material was collected by microcentrifugation and air-dried. […] Proteins were quantified using a protein assay kit (Bio-Rad, Hercules, CA, USA). Histones were detected resolving samples on a 10% gel in MES buffer at 200 V for 40 min. […] After five washes with PBS-TWEEN 20 0.1%, antibody binding was detected by Amersham ECL Plus Western Blotting Detection System (GE Healthcare, Milan, Italy).
# HT29 cells = assay: Cell cycle analysis by flow cytometry (PI staining); format: cell-based, human; settings: HT29, 5 μM, 24 h
# Method: HT29 cells were treated with 1 or 5 μM 5 for 24 h and analyzed by flow cytometry after DNA staining. […] In contrast, 5-treated HT29 cells accumulated in the G0/G1 phase in a dose-dependent manner, with a nearly complete synchronization (84% ± 0.9) after 5 μM treatment.
# HT29 were plated at density of 20,000 cell/cm^2 in dish and after 24 h treated with 1 or 5 μM of 5 for 24 h. The samples were prepared in according to Calonghi. In brief, untreated and treated cells were detached, washed in PBS and the pellet was finally re-suspended in 0.01% Nonidet P-40 (Sigma-Aldrich, Milano, Italy), 10 μg/mL RNase (Sigma-Aldrich, Milano, Italy), 0.1% sodium citrate (Sigma-Aldrich, Milano, Italy), 50 μg/mL propidium iodide (PI) (Sigma-Aldrich, Milano, Italy), for 30 min at room temperature in the dark. Propidium iodide (PI) fluorescence was acquired on a linear scale and analysed by Modfit software version 5.2 (USA). Flow cytometric assays were performed on a Brite HS flow cytometer (Bio-Rad, Watford, UK) equipped with a Xe/Hg lamp.
# [2] = system: 3T3 (mouse embryonic fibroblast) cells; assay: MTT viability assay, 3T3; format: cell-based; settings: 24 h, normal cells
# Text: To investigate whether the compounds have an antitumor activity, we performed in vitro viability assays against a panel of cancer cell lines: HT29 (human colorectal adenocarcinoma), HeLa (human cervical carcinoma), IGROV-1 (human ovarian carcinoma), MCF7 (human breast cancer), PC-3 (human prostate adenocarcinoma), and Jurkat J6 (human […]). The I407 (human embryonic intestinal) and 3T3 (mouse embryonic fibroblast) cells were used as controls. The growth inhibitory concentration was determined by incubating the cells with increasing concentrations (0.01–500 μM) of the compounds for 24 h. Data obtained from cell growth assays were elaborated to assess the concentration of cell viability (IC50) and selectivity indices (SI), and the results are shown in Table 2 and Table 3, respectively.
# HT29 human colorectal adenocarcinoma cells, HeLa human cervix adenocarcinoma cells, MCF7 human breast adenocarcinoma cells, PC-3 human prostate adenocarcinoma cells, J6 Jurkat Clone E6-1 acute T cell leukemia, the healthy I407 human intestine cells, and mouse embryonic fibroblast 3T3 fibroblasts as controls cell lines were purchased from American Type Culture Collection (ATCC, Manassas, VA). The human ovarian cancer cell line IGROV1 has been kindly provided by Prof. Colnaghi (Istituto Nazionale Tumori (IRCCS) (Milano, Italy). Cells were cultured in RPMI 1640 medium (Labtek Eurobio, Milan, Italy), supplemented with 10% FCS (Euroclone, Milano, Italy) and 2 mM L-glutamine (Sigma-Aldrich, Milano, Italy), at 37 °C, and a 5% CO2 atmosphere. The compounds were dissolved in DMSO in a 30–40 mM stock solution. In cell treatments, the final DMSO concentration never exceeded 0.1%.
# Cells were seeded at 1.5 × 10^4 cells/well in a 96-well culture plastic plate (Sarsted, Milan, Italy), and after 24 h of growth were exposed to increasing concentrations of each distinct compound (from 0.010 μM to 500 μM) solubilized in RPMI 1640 medium. MTT assay was performed according to the literature. In brief, after 24 h of treatment, the culture medium was replaced with 0.1 mL of 3-(4,5-dimethylthiazolyl-2)-2,5-diphenyltetrazolium bromide (MTT, Sigma-Aldrich, Milano, Italy) dissolved in PBS at the concentration of 0.2 mg/mL, and samples were incubated for 2 h at 37 °C. The absorbance at 570 nm was measured using a multiwell plate reader (Tecan, Männemorf, Switzerland), and data were analyzed by Prism GraphPad software, and expressed as IC50 μM.
# [3] = system: CDKN1B, CDKN1A and Bax transcription in HT29 cells; assay: Quantitative real-time PCR of CDKN1B, CDKN1A, Bax; format: cell-based, human; settings: HT29, 5 μM, 6 h, normalized to G3PDH, vs. control
# Method: To verify whether the epigenetic modifications were related to changes in gene expression, we proceeded with the qtRT-PCR analysis and western blot of related protein products. Transcription levels of CDKN1B, CDKN1A, and Bax were analysed by RT-PCR performed on cDNA of HT29 control and treated with 5 μM of 5 for 6 h.
# 24 h after seeding, HT29 cells have been treated with 5 µM 5 for 6 h. Total RNA has been isolated by RNeasy Mini kit (Qiagen, Hilden, Germany) according to the manufacturer’s protocol. 1 μg of RNA has been reverse-transcribed with RevertAid First Strand cDNA Synthesis Kit (Fermentas, Ontario, Canada) by using oligo(dT) primers. The cDNA has been analyzed by quantitative Real-Time PCR (qRT-PCR), by employing the LightCycler FastStart DNA Master SYBR Green I Kit and the LightCycler 2.0 instrument (Roche Diagnostics, Manheim, Germany). Gene expression has been quantified by ΔΔCT method, by using G3PDH as the housekeeping gene. The following primers were used: 5′-[…]-3′ (forward) and 5′-[…]-3′ (reverse) for G3PDH detection, 5′-[…]-3′ (forward) and 5′-[…]-3′ (reverse) for p27 detection 5′-[…]-3′(forward) and 5′-[…]-3′ (reverse) for p21 WAF1 detection, 5′-GATGCGTCCACCAAGAAGC-3′ (forward) and 5′-CCGCCACAAAGATGGTCAC -3′ (reverse) for Bax detection.
smiles,measurement,setting,value
Nc1ccc(CN(Cc2ccc(O)cc2)C(=O)Cc2c[nH]c3ccccc23)cc1 [Compound 5],Histone H2/H3 acetylation,[1],did not modify the state of acetylation of H2/H3
same,Histone H4 acetylation,[1],induced H4 hyperacetylation
same,Cells in G0/G1 phase,HT29 cells,84% ± 0.9
same,IC50,[2],32 ± 0.02 µM
same,Bax gene expression (fold change),[3],2.58 ± 0.11
same,CDKN1A gene expression (fold change),[3],4.16 ± 0.53
same,CDKN1B gene expression,[3],did not modify the gene expression
